Test: Test Example 1: penetrability of the base (migration of food red from the drug application seat)
Assay type: physicochemical
Settings: 100% humidity, root embedded in gypsum block
Text: FIG. 7 depicts a cross-sectional view of a sample 50 according to the present test example. First, the mandibular first premolar affected with apical periodontitis was drilled with a #70 […] to enlarge the root canal and further the root canal 51 was filled using a gutta-percha point and a sealer, and by pressing them sideways. […] At the bottom of this drug application seat 52, two small pieces 53 (about 1.0 mm in diameter) of each base shown in Table 1 added with food red were loaded. Furthermore, cotton ball (not shown) was placed so as to cover these small pieces 53, and “Caviton (registered trade mark)” (G C Co., Ltd.) was layered over this cotton ball to form the covering layer 54, thereby preparing the sample 50. After the root portion of each sample 50 was embedded in an ordinary gypsum block 55, it was stored under 100% humidity. Migration distances of food red from the drug application seat for storing times of 24 hours and 48 hours were measured to assess the penetrability of the base contained in each sample. In this case, the migration distance was determined as the longest distance in the direction of depth (in the direction of the arrow D in FIG. 7) of the area reached by coloring due to food red when the sample 50 was observed from outside.

SMILES | Migration distance of food red from drug application seat (depth direction) (storing time 24 hours) [mm] | Migration distance of food red from drug application seat (depth direction) (storing time 48 hours) [mm]
O [Sample 1, Water] | 2.0 | 4.0
OCC(O)CO [Sample 6, Glycerin] | 5.0 | 7.0
CC(O)CO (stereo not drawn) [Sample 2, Propylene glycol] | 2.0 | 3.5
